Test results from ChEMBL document CHEMBL1136896, “Synthesis and biological evaluation of arylhydrazinocyanoacrylates and N-aryl pyrazolecarboxylates” (2009).

Experiments:
Format in all cases: functional
Brassica napus [1] = test: Herbicidal activity against Brassica napus at 1.5 kg/hectare administered postemergence of first true leaf measured after 10 days; settings: post-emergence, 240 h
Amaranthus retroflexus [2] = test: Herbicidal activity against Amaranthus retroflexus at 1.5 kg/hectare administered postemergence of first true leaf measured after 10 days; settings: post-emergence, 240 h
Medicago sativa [3] = test: Herbicidal activity against Medicago sativa at 1.5 kg/hectare administered postemergence of first true leaf measured after 10 days; settings: post-emergence, 240 h
Digitaria sanguinalis [4] = test: Herbicidal activity against Digitaria sanguinalis at 1.5 kg/hectare administered postemergence of first true leaf measured after 10 days; settings: post-emergence, 240 h
Amaranthus retroflexus [5] = test: Herbicidal activity against Amaranthus retroflexus at 1.5 kg/hectare administered preemergence of first true leaf measured after 10 days; settings: pre-emergence, 240 h
Medicago sativa [6] = test: Herbicidal activity against Medicago sativa at 1.5 kg/hectare administered preemergence of first true leaf measured after 10 days; settings: pre-emergence, 240 h
Digitaria sanguinalis [7] = test: Herbicidal activity against Digitaria sanguinalis (L.) Scop. at 1.5 kg/hectare administered preemergence of first true leaf measured after 10 days; settings: pre-emergence, 240 h
Fusarium graminearum = test: Fungicidal activity against Gibberella zeae assessed as inhibition of mycelium growth at 50 mg/L after 72 hrs
Alternaria solani = test: Fungicidal activity against Alternaria solani assessed as inhibition of mycelium growth at 50 mg/L after 72 hrs
Mycosphaerella arachidis = test: Fungicidal activity against Cercospora arachidicola assessed as inhibition of mycelium growth at 50 mg/L after 72 hrs
[8] = system: Botryosphaeria berengeriana; test: Fungicidal activity against Physalospora pyricola assessed as inhibition of mycelium growth at 50 mg/L after 72 hrs
Cladosporium cucumerinum = test: Fungicidal activity against Cladosporium cucumerinum assessed as inhibition of mycelium growth at 50 mg/L after 72 hrs
Cucumis sativus = test: Growth regulatory activity in cucumber assessed as root growth at 10 mg/L incubated in dark for 5 days
HL-60 [9] = test: Antitumor activity against human HL60 cells at 1000 uM/L after 72 hrs by MTT assay; settings: HL-60, 72 h
HL-60 [10] = test: Antitumor activity against human HL60 cells at 100 uM/L after 72 hrs by MTT assay; settings: HL-60, 72 h
HL-60 [11] = test: Antitumor activity against human HL60 cells at 10 uM/L after 72 hrs by MTT assay; settings: HL-60, 72 h
HL-60 [12] = test: Antitumor activity against human HL60 cells at 1 uM/L after 72 hrs by MTT assay; settings: HL-60, 72 h
Bel-7402 [13] = test: Antitumor activity against human Bel7402 cells at 1000 uM/L after 72 hrs by MTT assay; settings: Bel-7402, 72 h
Bel-7402 [14] = test: Antitumor activity against human Bel7402 cells at 100 uM/L after 72 hrs by MTT assay; settings: Bel-7402, 72 h
Bel-7402 [15] = test: Antitumor activity against human Bel7402 cells at 10 uM/L after 72 hrs by MTT assay; settings: Bel-7402, 72 h
Bel-7402 [16] = test: Antitumor activity against human Bel7402 cells at 1 uM/L after 72 hrs by MTT assay; settings: Bel-7402, 72 h
Brassica napus [17] = test: Herbicidal activity against Brassica napus L. at 1.5 kg/hectare administered preemergence of first true leaf measured after 10 days; settings: pre-emergence, 240 h

Row | Compound | inhibition at 1500 g/ha (Brassica napus [1]) [%] | inhibition at 1500 g/ha (Amaranthus retroflexus [2]) [%] | inhibition at 1500 g/ha (Medicago sativa [3]) [%] | inhibition at 1500 g/ha (Digitaria sanguinalis [4]) [%] | inhibition at 1500 g/ha (Amaranthus retroflexus [5]) [%] | inhibition at 1500 g/ha (Medicago sativa [6]) [%] | inhibition at 1500 g/ha (Digitaria sanguinalis [7]) [%] | inhibition at 50 µg/mL (Fusarium graminearum) [%] | inhibition at 50 µg/mL (Alternaria solani) [%] | inhibition at 50 µg/mL (Mycosphaerella arachidis) [%] | inhibition at 50 µg/mL [8] [%] | inhibition at 50 µg/mL (Cladosporium cucumerinum) [%] | Activity (Cucumis sativus) [%] | inhibition at 1000 µM (HL-60 [9]) [%] | inhibition at 100 µM (HL-60 [10]) [%] | inhibition at 10 µM (HL-60 [11]) [%] | inhibition at 1 µM (HL-60 [12]) [%] | inhibition at 1000 µM (Bel-7402 [13]) [%] | inhibition at 100 µM (Bel-7402 [14]) [%] | inhibition at 10 µM (Bel-7402 [15]) [%] | also measured
1 | CCOCCOC(=O)/C(C#N)=C(\NNc1cc(Cl)c(Cl)cc1Cl)C(C)C | 5 | 20.3 | 3.7 | 0 | 5.9 | 0 | 0 | 14.4 | 10 | 18.2 | 26.7 | 16.7 | -1.5 | 81.1 | 1.5 | 23.4 | 7.1 | 96.9 | 0 | 0 | inhibition at 1 µM (Bel-7402 [16]): 0%; inhibition at 1500 g/ha (Brassica napus [17]): 0%
2 | CCOCCOC(=O)/C(C#N)=C(\NNc1c(Cl)cc(Cl)cc1Cl)C(C)C | 0 | 13.3 | 21 | 17.9 | 0 | 0 | 0 | 4.8 | 10 | 18.2 | 6.7 | 8.3 | -2.2 | 80.3 | 20.8 | 0 | 0 | 84.3 | 9 | 12.7 | inhibition at 1 µM (Bel-7402 [16]): 5.2%; inhibition at 1500 g/ha (Brassica napus [17]): 0%
3 | CCOCCOC(=O)/C(C#N)=C(/CC)NNc1cc(Cl)c(Cl)cc1Cl | 0 | 15.6 | 4.7 | 0 | 5.9 | 0 | 3.8 | 9.6 | 10 | 21.3 | 36 | 13.9 | -39 | 80.4 | 7.3 | 11.8 | 8.3 | 94.5 | 0 | 0 | inhibition at 1 µM (Bel-7402 [16]): 0%; inhibition at 1500 g/ha (Brassica napus [17]): 0%
4 | CCOCCOC(=O)/C(C#N)=C(/CC)NNc1cccc(Cl)c1Cl | 4.3 | 15.6 | 3.3 | 5.4 | 5.9 | 0 | 0 | 14.4 | 20 | 24.2 | 65.3 | 13.9 | -12.7 | 69.4 | 50 | 26.8 | 21.2 | 55.3 | 24.9 | 12.1 | inhibition at 1 µM (Bel-7402 [16]): 11.6%; inhibition at 1500 g/ha (Brassica napus [17]): 0%
5 | CCOCCOC(=O)c1c(SC)nn(-c2ccc([N+](=O)[O-])cc2)c1N | 0 | 0 | 38.3 | 0 | 0 | 0 | 0 | 51.1 | 8 | 11.8 | 13.3 | 12.7 | 54.4 | 28.5 | 22.3 | 0 | 2.4 | 48.4 | 4.2 | 0 | inhibition at 1 µM (Bel-7402 [16]): 5.5%; inhibition at 1500 g/ha (Brassica napus [17]): 0%
6 | CCOCCOC(=O)/C(C#N)=C(/CC)NNc1ccc(Cl)cc1Cl | 0 | 18 | 0 | 0 | 0 | 0 | 0 | 28.6 | 40 | 51.5 | 76 | 38.9 | -5.2 | 57.2 | 0 | 0 | 0 | 0 | 0 | 0 | inhibition at 1 µM (Bel-7402 [16]): 0%; inhibition at 1500 g/ha (Brassica napus [17]): 0%
7 | CCOCCOC(=O)c1c(C(C)C)nn(-c2ccc([N+](=O)[O-])cc2)c1N | 0 | 0 | 0 | 0 | 0 | 0 | 0 | 46.7 | 16 | 44.1 | 46.7 | 40 | 21.9 | 10 | 27.8 | 9 | 0 | 48.6 | 10.7 | 6.2 | inhibition at 1 µM (Bel-7402 [16]): 0%; inhibition at 1500 g/ha (Brassica napus [17]): 0%
8 | CCOCCOC(=O)c1c(SC)nn(-c2ccc(C)cc2C)c1N | 24.1 | 0 | 0 | 0 | 0 | 0 | 0 | 46.7 | 8 | 35.3 | 9.3 | 10.9 | 42.2 | 43.5 | 49.9 | 21 | 9.4 | 32.9 | 0 | 0 | inhibition at 1 µM (Bel-7402 [16]): 0%; inhibition at 1500 g/ha (Brassica napus [17]): 0%
9 | CCOCCOC(=O)/C(C#N)=C(/CC)NNc1c(Cl)cc(Cl)cc1Cl | 0 | 13.3 | 5.6 | 1.8 | 8.8 | 0 | 0 | 19.2 | 25 | 15.5 | 46.7 | 22.2 | -16.5 | 84.3 | 36.6 | 23.1 | 2.5 | 95.9 | 3.6 | 3.9 | inhibition at 1 µM (Bel-7402 [16]): 0%; inhibition at 1500 g/ha (Brassica napus [17]): 0%
